# Patent publication US9278922B2 (ABBVIE INC., priority 2009, dated 2016)
# Tested on: HCV 1b-Con-1 replicon
# Test: HCV 1b-Con-1 replicon assay (luciferase reporter gene, HuH-7 cells)
# Assay type: cell-based, Hepatitis C virus (HCV) genotype 1b-Con1
# Conditions: Hepatitis C virus, Huh-7, luciferase reporter gene activity in the replicon, in the presence of 5% FBS
row,Structure (SMILES),EC50 [nM]
1,"COC(=O)N[C@H](C(=O)N1CCC[C@H]1C(=O)Nc1ccc(CN(Cc2ccc(NC(=O)[C@@H]3CCCN3C(=O)[C@@H](NC(=O)OC)C(C)(C)O)cc2)c2ccccc2)cc1)C(C)(C)O [Example 28, dimethyl [(phenylimino)bis{methanediylbenzene-4,1-diylcarbamoyl(2S)pyrrolidine-2,1-diyl[(2S)-3-hydroxy-3-methyl-1-oxobutane-1,2-diyl]}]biscarbamate]",< 1
2,"O=C(Nc1ccc(CN(Cc2ccc(NC(=O)[C@@H]3CCCN3C(=O)C(c3ccccc3)C3(O)CCCC3)cc2)c2ccc(F)cc2)cc1)[C@@H]1CCCN1C(=O)C(c1ccccc1)C1(O)CCCC1 (stereo partly drawn) [Example 106, (2S ,2′S)-N,N′-{[(4-fluorophenyl)imino]bis(methanediylbenzene-4,1-diyl)}bis{1-[(1-hydroxycyclopentyl)(phenyl)acetyl]pyrrolidine-2-carboxamide}]",< 1
3,"COC(=O)N[C@@H](CCO)C(=O)N1CCC[C@H]1C(=O)Nc1ccc(CN(Cc2ccc(NC(=O)[C@@H]3CCCN3C(=O)[C@H](CCO)NC(=O)OC)cc2)c2ccc(F)cc2)cc1 [Example 134, dimethyl ([(4-fluorophenyl)imino]bis{methanediylbenzene-4,1-diylcarbamoyl(2S)pyrrolidine-2,1-diyl[(2S)-4-hydroxy-1-oxobutane-1,2-diyl]})biscarbamate]",1 to 10
4,"COC(=O)N[C@H](C(=O)N1[C@H](C(=O)Nc2ccc(CN(Cc3ccc(NC(=O)[C@@H]4C[C@@H]5CCC[C@@H]5N4C(=O)[C@@H](NC(=O)OC)C(C)(C)C)cc3)c3ccc(F)cc3)cc2)C[C@@H]2CCC[C@@H]21)C(C)(C)C [Example 123, dimethyl ([(4-fluorophenyl)imino]bis{methanediylbenzene-4,1-diylcarbamoyl(2S,3aS,6aS)hexahydrocyclopenta[b]pyrrole-2,1(2H)-diyl[(2S)-3,3-dimethyl-1-oxobutane-1,2-diyl]})biscarbamate]",< 1
5,"O=C(Nc1ccc(CN(Cc2ccc(NC(=O)[C@@H]3CCCN3C(=O)C(c3ccccc3)N3CC[C@@H](F)C3)cc2)c2ccc(F)cc2)cc1)[C@@H]1CCCN1C(=O)C(c1ccccc1)N1CC[C@@H](F)C1 (stereo partly drawn) [Example 116, (2S,2′S)-N,N′-{[(4-fluorophenyl)imino]bis(methanediylbenzene-4,1-diyl)}bis(1-{[(3R)-3-fluoropyrrolidin-1-yl](phenyl)acetyl}pyrrolidine-2-carboxamide)]",< 1
6,"CN(C)C(=O)N[C@H](C(=O)N1CCC[C@H]1C(=O)Nc1ccc(CN(Cc2ccc(NC(=O)[C@@H]3CCCN3C(=O)[C@@H](NC(=O)N(C)C)C(C)(C)C)cc2)c2ccccc2)cc1)C(C)(C)C [Example 80, (2S,2′S)-N,N′-[(phenylimino)bis(methanediylbenzene-4,1-diyl)]bis(1-{(2S)-2-[(dimethylcarbamoyl)amino]-3,3-dimethylbutanoyl}pyrrolidine-2-carboxamide)]",10 to 100
7,CCC(CC)[C@H](NC(=O)OC)C(=O)N1CCC[C@H]1C(=O)Nc1ccc(CN(Cc2ccc(NC(=O)[C@@H]3CCCN3C(=O)[C@@H](NC(=O)OC)C(CC)CC)cc2)c2ccc(F)cc2)cc1 [Example 135],1 to 10
8,"O=C(Nc1ccc(CN(Cc2ccc(NC(=O)[C@@H]3CCCN3C(=O)C(c3ccccc3)C3CCCC3)cc2)c2ccc(F)cc2)cc1)[C@@H]1CCCN1C(=O)C(c1ccccc1)C1CCCC1 (stereo partly drawn) [Example 107, (2S,2′S)-N,N′-{[(4-fluorophenyl)imino]bis(methanediylbenzene-4,1-diyl)}bis{1-[cyclopentyl(phenyl)acetyl]pyrrolidine-2-carboxamide}]",10 to 100
9,"COC(=O)N[C@H](C(=O)N1CCC[C@H]1C(=O)Nc1ccc(CN(Cc2ccc(NC(=O)[C@@H]3CCCN3C(=O)[C@@H](NC(=O)OC)C3CCCC3)cc2)c2ccc(F)cc2)cc1)C1CCCC1 [Example 133, dimethyl ([(4-fluorophenyl)imino]bis{methanediylbenzene-4,1-diylcarbamoyl(2S)pyrrolidine-2,1-diyl[(1S)-1-cyclopentyl-2-oxoethane-2,1-diyl]})biscarbamate]",< 1
